In patent publication US11891655B2, “Probe for selectively characterizing enzymes involved in xenobiotic metabolism and method of making and using the same” (Battelle Memorial Institute, priority 2017, dated 2024):

Legend:
[1] = test system: GSTs in mouse liver cytosol
recombinant human GSTM1 = target: T1, recombinant human GSTM1 (Homo sapiens, UniProt P09488); experiment: Concentration-dependent probe labeling of recombinant GST (SDS-PAGE); type: binding; details: increasing probe concentrations, 30 minutes incubation, rhodamine click
T1 sequence (P09488 1-218): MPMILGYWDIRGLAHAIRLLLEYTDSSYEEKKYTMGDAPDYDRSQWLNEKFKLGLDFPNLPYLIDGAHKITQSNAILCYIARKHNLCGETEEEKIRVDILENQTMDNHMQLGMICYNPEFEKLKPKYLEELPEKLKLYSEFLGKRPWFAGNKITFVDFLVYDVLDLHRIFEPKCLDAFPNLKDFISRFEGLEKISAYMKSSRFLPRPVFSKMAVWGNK
Experimental: FIG. 15A show results from labeling glutathione transferase (GSH and GST) with probe embodiments described herein using 1 μM recombinant human GSTm1.
(§1) Concentration dependent labeling of a recombinant GST (FIG. 15A) was evaluated. The two probe embodiments, GSH-ABP-G and GST-ABP-H, were applied with increasing concentrations to the recombinant human GSTM1, a GST isoenzyme that is highly expressed in mammalian liver. […] Both probes were then applied with increasing concentrations to the cytosolic fraction of mouse liver lysate to further test probe targeting (FIG. 15B). Both probes strongly label two distinct bands at 24 kDa. The lower band is likely GSTP1, a 23.6 kDa protein highly abundant in the liver. […] To determine the specific GST isoforms targeted by each probe, LC-MS based proteomics analyses of mouse liver labeling, and labeling in the presence of specific inhibitors were performed (FIGS. 16A and 16B). […] 27 probe-targeted proteins were determined to be statistically significant targets of the GSH-ABP-G probe embodiment at a fold-change of 3 over no UV exposure controls. Of these 27 proteins, 8 are known GSTs and include members of mu, alpha, pi, theta, kappa, and zeta classes. The remaining proteins include five proteins with known GSH binding, one with known antioxidant and drug binding activity, and five proteins highly abundant in liver with no known GSH binding activity. […]

[2] = test system: cytosolic fraction of mouse liver lysate; type: binding; details: increasing probe concentrations; SDS-PAGE
Experimental: FIG. 15B show results from labeling glutathione transferase (GSH and GST) with probe embodiments described herein using 1 μM mouse liver cytosol.
as §1

[3] = test system: GST isoenzymes in lung lysate; experiment: LC-MS proteomics of probe-enriched mouse lung lysate; type: binding
gut microbiota = type: in vivo, mouse; details: vancomycin in drinking water 0.1 mg/mL
[4] = test system: glucuronidase activity in the gut microbiome; type: in vivo, mouse; details: vancomycin in drinking water 0.1 mg/mL; 4 of 5 sets of litter mates
Experimental: For the glucuronidase studies, female C57BL/6J mice age 6-8 weeks were purchased from Jackson Laboratories and housed with a 12 hour light/12 hour dark light cycle. Food (PMI 5002) and water were provided ad libitum. Mice were acclimated for 7 days prior to the onset of any treatment. During this time, littermates were co-housed. After this time, mice were placed in separate cages for antibiotic treatment. One set of littermates (n=5) were exposed to vancomycin in drinking water (0.1 mg/mL). The other set were given normal water. To monitor for adverse reactions to the antibiotics, researchers could not be blinded to treatment group during exposure, and were not blinded during subsequent analysis.
Microbial cells from the mouse gut were suspended in PBS with protease inhibitor (cOmplete EDTA-free Protease Inhibitor, Roche) and lysed via bead beating (Bullet Blender). 4-methylumbelliferyl-s-D-glucuronide (4-MUG; 1 mM) was added to 50 μL lysate (0.9 μg total protein) to achieve a final concentration of 500 μM. […] Fluorescence was measured using a plate reader (Molecular Biosciences), and amount of hydrolyzed substrate was calculated relative to a standard curve. Rate (mM/s) was determined via linear regression (GraphPad Prism) and activity was calculated as rate per μg protein. […]

[5] = test system: GSTs (H site) in mouse liver cytosol; details: read-out: EC50 of inhibition of GST-ABP-H probe labeling, 10 μM probe
[6] = 10 μM probe, mouse liver cytosol

Compound | number of GSTs enriched by probe in mouse liver [1, 6] | labeling of recombinant human GSTM1 (recombinant human GSTM1) | selectivity of labeling in mouse liver cytosol [2] | number of GST isoenzymes enriched by probe in lung lysate [3] | other results
C#CCCCC(=O)Nc1cccc2c1C(=O)C(Cl)=C(Cl)C2=O [GST-ABP-H, N-(6,7-dichloro-5,8-dioxo-5,8-dihydronaphthalen-1-yl)hex-5-ynamide] | 12 | concentration-dependent targeting | more susceptible to off-target labeling | 11 | 
CN[C@H](CC(C)C)C(=O)N[C@H]1C(=O)N[C@@H](CC(N)=O)C(=O)N[C@H]2C(=O)N[C@H]3C(=O)N[C@H](C(=O)N[C@H](C(=O)O)c4cc(O)cc(O)c4-c4cc3ccc4O)[C@H](O)c3ccc(c(Cl)c3)Oc3cc2cc(c3O[C@@H]2O[C@H](CO)[C@@H](O)[C@H](O)[C@H]2O[C@H]2C[C@](C)(N)[C@H](O)[C@H](C)O2)Oc2ccc(cc2Cl)[C@H]1O [Vancomycin] |  |  |  |  | relative abundance of Firmicutes in gut microbiota (gut microbiota): dramatically decreased; glucuronidase activity in gut microbiome after treatment [4]: reduced, but did not eliminate
CCCCCCSC[C@H](NC(=O)CC[C@H](N)C(=O)O)C(=O)NCC(=O)O [S-hexylglutathione, reference compound] |  |  |  |  | fold change inhibition of GST-ABP-H and GSH-ABP-G labeling of GSTA3, M1, and P1 ([1]; S-hexylglutathione competed liver cytosol, p≤0.05): > 3.0; EC50 [5]: 41.5 µM
CCN1C(=O)C=CC1=O [N-ethylmaleimide, reference compound] |  |  |  |  | competition of GST-ABP-H labeling (proteomic analysis) ([1]; competitor 100 μM, mouse liver cytosol): failed to compete for binding of most GST isoenzymes
C#CCNC(=O)C(Cc1ccc(C(=O)c2ccccc2)cc1)NC(=O)CSCC(NC(=O)CC[C@H](N)C(=O)O)C(=O)NCC(=O)O (some centres unmarked) [GSH-ABP-G, N5-(3-((2-((3-(4-benzoylphenyl)-1-oxo-1-(prop-2-yn-1-ylamino)propan-2-yl)amino)-2-oxoethyl)thio)-1-((carboxymethyl)amino)-1-oxopropan-2-yl)glutamine] | 8 | concentration-dependent targeting | high selectivity | 3 | number of statistically significant probe-targeted proteins ([1]; fold-change of 3 over no UV exposure controls, 10 μM probe): 27
